Measured values: ChEMBL document CHEMBL5523740, “Discovery of Potent and Selective c-Met Degraders for Hepatocellular Carcinoma Treatment” (J Med Chem, 2024)

Key:
MHCC97H [1] = assay: Antiproliferative activity against human MHCC97H cells incubated for 24 hrs by CCK8 assay; type: functional, cell-based
[2] = molecular target: Hepatocyte growth factor receptor (Homo sapiens, UniProt P08581); assay: Induction of c-Met degradation in human MHCC97H cells at 1 uM incubated for 24 hrs by Western blotting analysis; type: cell-based
[3] = Toxicity in BALB/c mouse xenografted with human MHCC97H cells assessed as reduction in body weight at 20 mg/kg, po qd for 22 days and measured every 2 days; type: organism-based; conditions: in vivo, 528 h, time 22 day
MHCC97H [4] = assay: Antitumor activity against human MHCC97H cells xenografted in BALB/c mouse assessed as tumor growth inhibition at 20 mg/kg, po qd for 22 days and measured every 2 days; type: functional; conditions: 528 h, time 22 day, read-out: TGI
MHCC97H [5] = assay: Induction of cell cycle arrest in human MHCC97H cells assessed as accumulation of cells at G2 phase at 3 nM incubated for 24 hrs by PI staining based flow cytometry analysis (reference value: 19.1%); type: functional
[6] = Toxicity in BALB/c mouse xenografted with human MHCC97H cells assessed as kidney lesions at 20 mg/kg, po qd for 22 days and measured every 2 days by H and E staining based assay; type: organism-based; conditions: in vivo, 528 h, time 22 day
MHCC97H [7] = assay: Induction of apoptosis in human MHCC97H cells assessed as early apoptotic cells at 3 nM incubated for 24 hrs by Annexin-V-FITC/PI staining based flow cytometry analysis (reference value: 7.70%); type: functional
MHCC97H [8] = assay: Induction of apoptosis in human MHCC97H cells assessed as viable cells at 3 nM incubated for 24 hrs by Annexin-V-FITC/PI staining based flow cytometry analysis (reference value: 86.3%); type: functional; conditions: read-out: Activity
BaF3 [9] = assay: Antiproliferative activity against mouse BaF3 cells harboring TPR-MET D1228N mutant fusion protein incubated for 72 hrs by CellTiter-Glo reagent based assay; type: functional, cell-based; conditions: BaF3, 72 h
[10] = Toxicity in BALB/c mouse xenografted with human MHCC97H cells assessed as heart lesions at 20 mg/kg, po qd for 22 days and measured every 2 days by H and E staining based assay; type: organism-based; conditions: in vivo, 528 h, time 22 day
MHCC97H [11] = assay: Induction of cell cycle arrest in human MHCC97H cells assessed as accumulation of cells at G1 phase at 3 nM incubated for 24 hrs by PI staining based flow cytometry analysis (reference value: 70.4%); type: functional
[12] = Toxicity in BALB/c mouse xenografted with human MHCC97H cells assessed as liver lesions at 20 mg/kg, po qd for 22 days and measured every 2 days by H and E staining based assay; type: organism-based; conditions: in vivo, 528 h, time 22 day
MHCC97H [13] = assay: Induction of apoptosis in human MHCC97H cells assessed as late apoptotic cells at 3 nM incubated for 24 hrs by Annexin-V-FITC/PI staining based flow cytometry analysis (reference value: 4.24%); type: functional
BaF3 [14] = assay: Antiproliferative activity against mouse BaF3 cells harboring TPR-MET fusion protein incubated for 72 hrs by CellTiter-Glo reagent based assay; type: functional, cell-based; conditions: BaF3, 72 h
[15] = Toxicity in BALB/c mouse xenografted with human MHCC97H cells assessed as spleen lesions at 20 mg/kg, po qd for 22 days and measured every 2 days by H and E staining based assay; type: organism-based; conditions: in vivo, 528 h, time 22 day
BaF3 [16] = assay: Antiproliferative activity against mouse BaF3 cells harboring TPR-MET Y1230H mutant fusion protein incubated for 72 hrs by CellTiter-Glo reagent based assay; type: functional, cell-based; conditions: BaF3, 72 h
[17] = Toxicity in BALB/c mouse xenografted with human MHCC97H cells assessed as lung lesions at 20 mg/kg, po qd for 22 days and measured every 2 days by H and E staining based assay; type: organism-based; conditions: in vivo, 528 h, time 22 day
MHCC97H [18] = assay: Induction of apoptosis in human MHCC97H cells assessed as necrotic cells at 3 nM incubated for 24 hrs by Annexin-V-FITC/PI staining based flow cytometry analysis (reference value: 1.77%); type: functional

Chain of Hepatocyte growth factor receptor (P08581 whole entry): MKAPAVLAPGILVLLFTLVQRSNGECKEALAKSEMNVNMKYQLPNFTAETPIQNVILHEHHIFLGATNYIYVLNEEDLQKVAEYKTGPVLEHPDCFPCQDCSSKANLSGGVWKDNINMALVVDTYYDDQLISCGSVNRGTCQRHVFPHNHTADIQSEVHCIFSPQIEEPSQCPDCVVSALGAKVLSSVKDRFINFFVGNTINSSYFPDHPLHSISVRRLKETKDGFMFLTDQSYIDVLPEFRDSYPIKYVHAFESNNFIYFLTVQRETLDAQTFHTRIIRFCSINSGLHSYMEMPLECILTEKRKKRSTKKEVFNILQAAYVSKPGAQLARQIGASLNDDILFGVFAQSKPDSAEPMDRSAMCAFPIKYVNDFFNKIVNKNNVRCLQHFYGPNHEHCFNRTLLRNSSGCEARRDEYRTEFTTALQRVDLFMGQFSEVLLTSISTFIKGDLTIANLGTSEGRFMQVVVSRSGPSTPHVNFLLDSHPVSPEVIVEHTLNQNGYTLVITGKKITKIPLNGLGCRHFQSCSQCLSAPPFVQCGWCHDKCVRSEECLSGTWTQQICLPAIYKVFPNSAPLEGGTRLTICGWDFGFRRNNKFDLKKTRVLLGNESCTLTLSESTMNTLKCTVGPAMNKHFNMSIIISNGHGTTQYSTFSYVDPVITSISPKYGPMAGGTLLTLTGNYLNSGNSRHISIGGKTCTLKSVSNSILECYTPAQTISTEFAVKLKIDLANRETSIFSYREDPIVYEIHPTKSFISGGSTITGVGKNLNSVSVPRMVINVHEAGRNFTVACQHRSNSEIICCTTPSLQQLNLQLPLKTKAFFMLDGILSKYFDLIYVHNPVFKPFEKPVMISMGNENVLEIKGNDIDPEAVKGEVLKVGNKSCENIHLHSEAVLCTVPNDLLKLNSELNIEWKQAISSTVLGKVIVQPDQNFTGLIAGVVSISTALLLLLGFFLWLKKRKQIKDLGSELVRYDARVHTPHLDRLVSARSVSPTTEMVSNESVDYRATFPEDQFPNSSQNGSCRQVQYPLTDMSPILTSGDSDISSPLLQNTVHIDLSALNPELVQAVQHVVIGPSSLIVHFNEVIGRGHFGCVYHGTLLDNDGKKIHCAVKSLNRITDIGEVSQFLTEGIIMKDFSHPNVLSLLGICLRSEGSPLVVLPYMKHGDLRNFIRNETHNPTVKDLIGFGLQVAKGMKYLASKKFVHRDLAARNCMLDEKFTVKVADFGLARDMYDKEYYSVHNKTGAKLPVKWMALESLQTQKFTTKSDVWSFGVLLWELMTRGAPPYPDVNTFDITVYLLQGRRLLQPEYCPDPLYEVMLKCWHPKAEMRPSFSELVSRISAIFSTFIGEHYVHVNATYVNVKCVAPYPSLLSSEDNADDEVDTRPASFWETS

| SMILES | Activity [2] | IC50 (MHCC97H [1]) | also measured |
| --- | --- | --- | --- |
| CC(C)[C@@H]1CC[C@@H](C)C[C@H]1OCC(=O)N1CCC(COc2cnc(-c3cccc(Cn4nc(-c5cccc(C#N)c5)ccc4=O)c3)nc2)CC1 | 35.8% | 258 nM |  |
| N#Cc1cccc(-c2ccc(=O)n(Cc3cccc(-c4ncc(OCC5CCN(CC(=O)NCCCCCCNC(=O)CC67CC8CC(CC(C8)C6)C7)CC5)cn4)c3)n2)c1 | < 10% | 200 nM |  |
| N#Cc1cccc(-c2ccc(=O)n(Cc3cccc(-c4ncc(OCC5CCN(CC(=O)NCCCCNC(=O)CC67CC8CC(CC(C8)C6)C7)CC5)cn4)c3)n2)c1 | < 10% | 139 nM |  |
| CN1CCC(COc2cnc(-c3cccc(Cn4nc(-c5cccc(C#N)c5)ccc4=O)c3)nc2)CC1 [TEPOTINIB] |  | 3.66 nM | Activity [3]: Non-Toxic; inhibition in vivo at 20 mg/kg (MHCC97H [4]): 58.8%; Activity (MHCC97H [5]): 16.6%; Activity [6]: Non-Toxic; Activity (MHCC97H [7]): 13.9%; viability at 0.003 µM (MHCC97H [8]): 79.6%; IC50 (BaF3 [9]): 2030 nM; Activity [10]: Non-Toxic; Activity (MHCC97H [11]): 73.7%; Activity [12]: Non-Toxic; Activity (MHCC97H [13]): 3.84%; IC50 (BaF3 [14]): 5.3 nM; Activity [15]: Non-Toxic; IC50 (BaF3 [16]): 1840 nM; Activity [17]: Non-Toxic; Activity (MHCC97H [18]): 2.57% |
| N#Cc1cccc(-c2ccc(=O)n(Cc3cccc(-c4ncc(OCC5CCN(C(=O)CC6c7ccccc7-c7ccccc76)CC5)cn4)c3)n2)c1 | 15.8% | 935 nM |  |
| N#Cc1cccc(-c2ccc(=O)n(Cc3cccc(-c4ncc(OCC5CCN(CC(=O)NCCCCCCCCCCNC(=O)CC67CC8CC(CC(C8)C6)C7)CC5)cn4)c3)n2)c1 | < 10% | 155 nM |  |
| N#Cc1cccc(-c2ccc(=O)n(Cc3cccc(-c4ncc(OCC5CCN(CCCC(=O)NCC67CC8CC(CC(C8)C6)C7)CC5)cn4)c3)n2)c1 | 40.5% | 11.8 nM |  |
| N#Cc1cccc(-c2ccc(=O)n(Cc3cccc(-c4ncc(OCC5CCN(CC(=O)NCC6CC7C=CC6C7)CC5)cn4)c3)n2)c1 (stereo unspecified) | 50.2% | 73.6 nM |  |

Now from value to compound, other results behind:

| Activity [2] | SMILES | IC50 (MHCC97H [1]) | also measured |
| --- | --- | --- | --- |
| < 10% | N#Cc1cccc(-c2ccc(=O)n(Cc3cccc(-c4ncc(OCC5CCN(CC(=O)NCCCCCCCCNC(=O)CC67CC8CC(CC(C8)C6)C7)CC5)cn4)c3)n2)c1 | 156 nM |  |
| 11.1% | N#Cc1cccc(-c2ccc(=O)n(Cc3cccc(-c4ncc(OCC5CCN(CCNC(=O)CC67CC8CC(CC(C8)C6)C7)CC5)cn4)c3)n2)c1 | 22.9 nM |  |
| 67.4% | N#Cc1cccc(-c2ccc(=O)n(Cc3cccc(-c4ncc(OCC5CCN(C(=O)CC67CC8CC(CC(C8)C6)C7)CC5)cn4)c3)n2)c1 | 67.2 nM |  |
| 22.4% | N#Cc1cccc(-c2ccc(=O)n(Cc3cccc(-c4ncc(OCC5CCN(CC(=O)NCCNC(=O)CC67CC8CC(CC(C8)C6)C7)CC5)cn4)c3)n2)c1 | 40.2 nM |  |
| < 10% | N#Cc1cccc(-c2ccc(=O)n(Cc3cccc(-c4ncc(OCC5CCN(C(=O)CC(c6ccccc6)c6ccccc6)CC5)cn4)c3)n2)c1 | 128 nM |  |
